Data as given in paper PMC6161601 (Journal of Enzyme Inhibition and Medicinal Chemistry, 2018).
Where “and” joins values, the source holds several entries; their conditions need not be identical. Identical values can stand only once. Entries after “also recorded” stand apart in the source; their conditions may differ. Like-named read-outs stand apart in the source and are kept apart here.

What was measured:
[1] = molecular target: T1, human plasma butyrylcholinesterase (BuChE) (Homo sapiens, UniProt P06276); test: biochemical; conditions: for IC50: human plasma BuChE, mean ± SD of three independent experiments; for SI BuChE: IC50(AChE)/IC50(BChE)
T1 construct: Plasma for determination of BuChE activity was obtained by centrifuging the blood; from tissue; host or cells: plasma of healthy human donors
T1 sequence (P06276 29-602): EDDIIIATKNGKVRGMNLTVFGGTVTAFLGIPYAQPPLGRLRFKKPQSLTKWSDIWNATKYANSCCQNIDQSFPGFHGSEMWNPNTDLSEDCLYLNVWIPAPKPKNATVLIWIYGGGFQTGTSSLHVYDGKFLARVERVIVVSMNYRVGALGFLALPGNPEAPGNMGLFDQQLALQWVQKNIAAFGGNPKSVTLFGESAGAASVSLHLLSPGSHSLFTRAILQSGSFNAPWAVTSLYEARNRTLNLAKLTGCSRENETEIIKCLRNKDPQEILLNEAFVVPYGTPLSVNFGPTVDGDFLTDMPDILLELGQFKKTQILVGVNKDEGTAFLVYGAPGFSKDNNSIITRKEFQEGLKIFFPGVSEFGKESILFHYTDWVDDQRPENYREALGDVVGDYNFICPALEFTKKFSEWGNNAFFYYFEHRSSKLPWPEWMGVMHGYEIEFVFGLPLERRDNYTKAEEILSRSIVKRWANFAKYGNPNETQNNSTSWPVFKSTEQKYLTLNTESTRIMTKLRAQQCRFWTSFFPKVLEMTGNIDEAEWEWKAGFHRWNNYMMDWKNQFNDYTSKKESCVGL
Experimental: (§1) Blood samples were obtained from healthy donors from the Voievodal Specialized Hospital in Łódź, Poland (Wojewódzki Specjalistyczny Szpital im. Dr W. Biegańskiego w Łodzi). The blood was collected into vacuum tubes containing sodium citrate. Erythrocytes were separated from plasma by centrifugation (3000 × g, 10 min, 20 °C) with a Micro 22 R centrifuge (Hettich ZENTRIFUGEN, Tuttlingen, Germany) and washed three times with 0.9% saline. Afterwards, red cells were haemolysed by freezing and stored at a temperature of –30 °C; before each experiment, they were restored at 37° C for 15 min and used to determine AChE activity. […] The studies on the biological material were approved by the Bioethics Committee of the Medical University of Lodz (RNN/27/18/KE).
(§2) The activity of both cholinesterases (AChE and BuChE) were conducted using a spectrophotometric method developed by Ellman with previously described modifications[25]^,[30]. […] 400-fold diluted solution of haemolysed erythrocytes or diluted plasma (200 times) was incubated for 15 min (37° C) with DTNB and tested compound at an appropriate concentration, and the reaction was started by addition of substrate (ATC or BTC). The final volume of a sample was 500 µL.
(§3) AChE Selectivity Index (SI) was calculated with the aid of the following formula: SI = IC50 of BChE/IC50 of AChE. In turn BuChE SI was defined as IC50 of AChE/IC50 of BChE. Linear regression (Hanes–Woolf plots) were used to estimate the maximal velocity (Vmax) and the Michaelis constant (Km).

[2] = molecular target: T2, human erythrocyte acetylcholinesterase (AChE) (Homo sapiens, UniProt P22303); test: biochemical; conditions: for SI AChE: IC50 BChE/IC50 AChE; for IC50: human erythrocyte AChE, mean ± SD of three independent experiments
T2 construct: from tissue; host or cells: haemolysed erythrocytes of healthy human donors
T2 sequence (P22303 other isoform, or with tags, fused parts or gaps): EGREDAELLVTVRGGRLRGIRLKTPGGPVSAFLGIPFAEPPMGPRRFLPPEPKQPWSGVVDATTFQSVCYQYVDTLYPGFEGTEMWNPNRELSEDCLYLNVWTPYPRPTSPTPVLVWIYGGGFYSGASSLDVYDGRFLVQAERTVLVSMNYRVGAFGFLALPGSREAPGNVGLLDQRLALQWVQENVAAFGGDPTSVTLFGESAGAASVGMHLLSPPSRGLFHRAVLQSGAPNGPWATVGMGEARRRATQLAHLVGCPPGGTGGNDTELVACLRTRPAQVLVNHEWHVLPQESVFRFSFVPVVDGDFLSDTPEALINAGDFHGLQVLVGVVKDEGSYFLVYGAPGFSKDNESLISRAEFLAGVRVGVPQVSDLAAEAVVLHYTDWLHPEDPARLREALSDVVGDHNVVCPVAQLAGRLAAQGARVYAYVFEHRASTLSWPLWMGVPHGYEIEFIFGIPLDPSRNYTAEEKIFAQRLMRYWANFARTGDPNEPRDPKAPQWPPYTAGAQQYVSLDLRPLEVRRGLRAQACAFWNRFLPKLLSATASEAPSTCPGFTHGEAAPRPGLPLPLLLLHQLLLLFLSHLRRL
Experimental: as §1, §2, §3

[3] = molecular target: T1, human plasma butyrylcholinesterase (BuChE); test: Kinetic parameters and type of BuChE inhibition (Hanes–Woolf); format: biochemical; conditions: for Vmax(i) BuChE: mean ± SD; for vmax BuChE, individual experiments B1–B3: inhibitor at 1/3 of IC50; for vmax BuChE, individual experiments C1–C3: inhibitor at IC50
Experimental: (§4) The absorbance was recorded at λ = 436 nm using a CECIL 2021 spectrophotometer (CECIL Instruments Limited, Cambridge, UK) with a thermostatic water flow (temperature 37° C).
as §3
(§5) To establish the type of inhibition, additional experiments were conducted with various concentrations of substrates (ATC, BTC), and the kinetic parameters of the enzymatic reactions were obtained using Hanes–Woolf equation, which is a graphical representation of enzyme kinetics in which the ratio of the initial substrate concentration [S] to the reaction velocity v is plotted against [S]. […]

[4] = molecular target: T2, human erythrocyte acetylcholinesterase (AChE); test: Kinetic parameters and type of AChE inhibition (Hanes–Woolf); format: biochemical; conditions: for Vmax(i) AChE: mean ± SD; for vmax AChE, individual experiments B1–B3: inhibitor at 1/3 of IC50; for vmax AChE, individual experiments C1–C3: inhibitor at IC50
Experimental: as §4, §3, §5

[5] = molecular target: T2, human erythrocyte acetylcholinesterase (AChE); conditions: previous study; cited from earlier work
Aβ42 peptide = molecular target: T3, Aβ42 peptide (Homo sapiens, UniProt P05067); test: Beta-amyloid (Aβ 1–42) aggregation, SensoLyte ThT kit; format: biochemical
T3 construct: Beta-amyloid (Aβ 1–42) aggregation studies were conducted using SensoLyte ThT Aβ42 Aggregation kit; purchased AnaSpec, Inc, Fremont, CA
T3 sequence (P05067 672-713): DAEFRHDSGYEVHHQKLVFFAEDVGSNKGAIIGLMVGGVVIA
Experimental: Beta-amyloid (Aβ 1–42) aggregation studies were conducted using SensoLyte ThT Aβ42 Aggregation kit (AnaSpec, Inc, Fremont, CA). Aβ42 peptide was dissolved in cold (4 °C) assay buffer and left to hydrate for a few minutes. The solution was spined at 10,000 rpm for 5 min at 4 °C to centrifuge out any precipitated material. […] The final volume of the test samples was 100 µL. Simultaneously, the positive control and negative control containing morin at the final concentration of 100 µmol/L were established. […] The measurements of fluorescence intensity expressed as relative fluorescence units (RFU) were taken for 90 min with 5 min intervals. The fluorescence intensity measured for positive control equals 100% of Aβ aggregation and was used for estimation of inhibition properties of tested biguanides.
Statistical analysis of data obtained in Aβ aggregation assay was conducted with a commercially available package (GraphPad Prism 5, La Jolla, CA). The results were expressed as the mean ± standard deviation (SD) of measurements conducted in triplicates or quadruplicates. One or two-way ANOVA and subsequent post hoc tests were used for intergroup comparisons. The results were considered significant at p values lower than 0.05.

BuChE [6] = molecular target: T4, BuChE (Homo sapiens, UniProt P06276); conditions: BTC 0.75 mmol/L; previously published; cited from earlier work
T4 construct: Plasma for determination of BuChE activity was obtained by centrifuging the blood; from tissue; host or cells: plasma of healthy human donors
T4 sequence (P06276 29-602): as the sequence (P06276 29-602) above

BuChE [7] = molecular target: T4, BuChE; test: BuChE inhibition with excess of substrate (BTC); format: biochemical; conditions: BTC 2.5 mmol/L
AChE = molecular target: T5, AChE (Homo sapiens, UniProt P22303); format: biochemical
T5 construct: 400-fold diluted solution of haemolysed erythrocytes or diluted plasma (200 times) was incubated; from tissue; host or cells: haemolysed erythrocytes of healthy human donors
T5 sequence (P22303 other isoform, or with tags, fused parts or gaps): as the sequence (P22303 other isoform, or with tags, fused parts or gaps) above

Structure (SMILES)	IC50 [1]	SI AChE [2]	IC50 [2]	I: type of inhibition, BuChE [3]	type of BuChE inhibition [3]	vmax BuChE, mean ± SD ([3]; B: inhibitor at 1/3 of IC50)	Vmax(i) BuChE ([3]; B: inhibitor at 1/3 of IC50)	vmax BuChE, mean ± SD ([3]; C: inhibitor at IC50)	Vmax(i) BuChE ([3]; C: inhibitor at IC50)	vmax BuChE, individual experiments B1–B3 [3]	vmax BuChE, individual experiments C1–C3 [3]	I: type of inhibition, AChE [4]	type of AChE inhibition [4]	vmax AChE, mean ± SD ([4]; B: inhibitor at 1/3 of IC50)	Vmax(i) AChE ([4]; B: inhibitor at 1/3 of IC50)	vmax AChE, mean ± SD ([4]; C: inhibitor at IC50)	Vmax(i) AChE ([4]; C: inhibitor at IC50)	vmax AChE, individual experiments B1–B3 [4]	vmax AChE, individual experiments C1–C3 [4]	SI BuChE [1]	other results
CCCCC(CC)CSNC(N)=NC(=N)N(C)C (stereo not shown) [Compound 2]	335 ± 107 µM	0.09	3680 ± 693 µM	M (M: mixed type)	mixed manner; also recorded: mixed-type	182.27 ± 9.29 mA/min	0.182 ± 0.009 A/min	103.11 ± 19.12 mA/min	0.103 ± 0.019 A/min	192.871 mA/min and 178.466 mA/min and 175.485 mA/min	115.727 mA/min and 81.110 mA/min and 112.514 mA/min	M (M: mixed type)	mixed type	218.43 ± 5.69 mA/min	0.218 ± 0.005 A/min	160.75 ± 10.82 mA/min	0.160 ± 0.011 A/min	225.000 mA/min and 215.564 mA/min and 214.749 mA/min	153.011 mA/min and 156.143 mA/min and 173.124 mA/min		
CCCCCCSNC(N)=NC(=N)N(C)C [Compound 1]	1880 ± 558 µM	0.59	3170 ± 411 µM	M (M: mixed type)	mixed-type inhibition; also recorded: mixed manner	206.94 ± 15.02 mA/min	0.207 ± 0.015 A/min	174.27 ± 11.70 mA/min	0.174 ± 0.012 A/min	195.000 mA/min and 223.809 mA/min and 202.024 mA/min	161.000 mA/min and 178.705 mA/min and 183.120 mA/min		non-competitive inhibition; also recorded: noncompetitively	202.18 ± 7.39 mA/min	0.202 ± 0.007 A/min	161.59 ± 24.42 mA/min	0.161 ± 0.024 A/min	200.260 mA/min and 210.362 mA/min and 195.955 mA/min	141.006 mA/min and 155.200 mA/min and 188.583 mA/min		
CN(C)C(=N)N=C(N)NS(=O)(=O)c1ccc([N+](=O)[O-])cc1 [Compound 3]	561 ± 192 µM	0.15	3820 ± 278 µM	M (M: mixed type)	mixed manner	207.61 ± 5.30 mA/min	0.208 ± 0.005 A/min	180.05 ± 19.37 mA/min	0.180 ± 0.019 A/min	207.848 mA/min and 202.204 mA/min and 212.802 mA/min	166.268 mA/min and 171.680 mA/min and 202.204 mA/min	M (M: mixed type)	mixed inhibition; also recorded: mixed way	147.43 ± 22.32 mA/min	0.147 ± 0.022 A/min	112.29 ± 24.418 mA/min	0.112 ± 0.024 A/min	173.106 mA/min and 136.619 mA/min and 132.580 mA/min	136.281 mA/min and 87.466 mA/min and 113.130 mA/min	6.82	
CN(C)C(=N)N=C(N)N [Metformin, metformin, reference compound]																					type of AChE inhibition [5]: mixed inhibition; inhibition at 600 µM (Aβ42 peptide; 600 µmol/L, read-out: maximal inhibition of Aβ aggregation): 11.3%; effect on Aβ fibrillation vs positive control (Aβ42 peptide; both tested concentrations, 5–90 min): did not significantly affect; also recorded: not to significantly affect; BuChE inhibition (BuChE [6]): up to 21.2%; effect on BuChE activity (words) (BuChE [7]): did not reveal anti-BuChE activity; effect on BuChE activity (words) (BuChE [7]; listed as metformin): not to affect the enzyme activity; inhibition at 3000 µM (BuChE [7]; metformin at 3 mmol/L): 1.1 ± 0.51%; type of AChE inhibition (AChE; at 1/2 IC50 for AChE): mixed-type; Vmax AChE (AChE; each at 1/2 IC50 for AChE: metformin 1175, donepezil 0.0125, compound 5 106.0 µmol/L, alone or in mixture): 0.179 ± 0.020 A/min
CN(C)C(=N)N=C(N)NS(=O)(=O)c1ccccc1[N+](=O)[O-] [Compound 4]	871 ± 227 µM	0.30	2860 ± 283 µM		non-competitively	229.87 ± 19.38 mA/min	0.229 ± 0.019 A/min	174.32 ± 5.91 mA/min	0.174 ± 0.006 A/min	229.000 mA/min and 249.675 mA/min and 210.944 mA/min	174.000 mA/min and 180.395 mA/min and 168.586 mA/min	M (M: mixed type)	mixed inhibition	162.74 ± 5.00 mA/min	0.163 ± 0.005 A/min	118.77 ± 19.443 mA/min	0.119 ± 0.019 A/min	161.000 mA/min and 168.393 mA/min and 158.846 mA/min	110.000 mA/min and 141.058 mA/min and 105.263 mA/min	3.28	
